melting point [°C]	Structure (SMILES)
223 to 226	Oc1nc(S)n(-c2ccccc2)n1
143	CCn1cc(CN(C(=O)C2CCCc3c(OCCCN(C)C)cccc32)c2ccc(C(C)C)cc2)cn1 (configuration not stated)
208 to 209	CC(C)(C)c1ccc(-c2c(Cl)c(CCl)nc3sc4c(c23)CCN(Cc2ccccc2)C4)cc1
296 to 298	Nc1ncc(CN2CCN(c3ccc(Cl)cc3)CC2)c(N)n1
161 to 166	CCN1CCCC1CNC(=O)c1ccc2c(c1)C(=O)C1(CC1)O2 (configuration not stated)
200 to 202	CC1CN(C(=O)N(c2ccccc2)c2ccccc2)CCN1C(=O)N(c1ccccc1)c1ccccc1 (configuration not stated)
202 to 203	O=C(NNS(=O)(=O)c1c(Cl)cccc1Cl)c1ccc2oc3ccccc3c2c1
139 to 140	CN1CCC(n2nc(-c3c(-c4ccccc4)nn4ccccc34)ccc2=O)CC1
215 to 216	O=Cc1ccc2c(ccc3c4ccccc4ccc23)c1
135 to 138	O=C(O)CC(Cc1ccccc1[N+](=O)[O-])C(=O)O (configuration not stated)
91 to 96	C[C@H](c1ccccc1)n1c(=O)c2c(N3CCNCC3)cc(Cl)cc2n(Cc2ccccc2)c1=O
141 to 143	CCOc1cc2ncnc(Cl)c2cc1OCC
110 to 112	CC(C)c1ccc(N(Cc2ccc(N(C)C)cc2)C(=O)C2CCOc3ccccc32)cc1 (configuration not stated)
90 to 105	O=C(c1cnc2ccccc2n1)N1CC2CC2(c2ccc(Cl)cc2)C1 (configuration not stated)
47 to 50	COc1cc([N+](=O)[O-])c2nccc(C)c2c1OCCCCCc1ccccc1
> 225	NCC1Cc2cc3c(cc2O1)CCCC3 (configuration not stated)
114 to 116	CCOC(=O)c1cnn(-c2ccc(Cl)cc2C(F)(F)F)c1N
110 to 113	CCCCCNC(=O)C(C)Cc1ccc2c(c1)c(Cc1ccc(C(=O)NS(=O)(=O)c3ccccc3C)cc1OC)cn2C (configuration not stated)
315 to 317	O=C(O)c1ccc(-c2ccn(-c3ccc(C(F)(F)F)cc3)c2)cc1
120 to 121	CC(=O)SCC(CC(C)C)C(=O)NCC(=O)O (configuration not stated)
216 to 221	Cc1[nH]cnc1CNC(=N)NC#N
265	COc1cccc(C2C(C(=O)c3ccc(C)cc3)=C(O)C(=O)N2c2ccc(C)nn2)c1 (configuration not stated)
> 250	CS(=O)(=O)Nc1cc2occ(-c3cscn3)c(=O)c2cc1Oc1ccccc1

melting point [°C]	Structure (SMILES)
85 to 89	CCOC(=O)c1cncc(OC)c1CCCO
52 to 54	CN(C)CCSc1ccc2nccn2n1
159 to 160	Clc1ccnc2[nH]c(CCc3ccccc3)cc12
214 to 216	N#Cc1csc(N2C(=O)C(Cc3ccccc3)NC2=S)n1 (configuration not stated)
120 to 123	CC(=O)Oc1ccccc1N1CCN(CCCNC(=O)c2cccc3c(=O)c(C)c(-c4ccccc4)oc23)CC1
151 to 153	CNc1cc(C(C)=O)ccc1OCCCN1CCC(c2noc3cc(F)ccc23)CC1
193 to 195	COc1cc(OC)cc(C(=O)NC(NC(=NC#N)Nc2ccc(Cl)nc2)C(C)(Cl)Cl)c1 (configuration not stated)
102 to 103	CCNc1ccc(NC(C)=O)c(C)c1
153 to 156	O=C(NCc1ncccn1)c1cnc(N2CCC[C@H]2CO)nc1NCc1cccc(Cl)c1
100 to 101	CCOC(=O)C1CCc2c([nH]c3ccc(N(C)C)cc23)C1 (configuration not stated)
143 to 145	CCOC(=O)C1=C(COCCN=[N+]=[N-])NC(C)=C(C(=O)OC)C1c1cccc(C(F)(F)F)c1Cl (configuration not stated)
160 to 162	O=S(=O)(Cc1ccccc1)c1nc[nH]n1
146 to 148	CCC(=O)NCC[C@@H]1CCc2cc(Br)c(O)cc21
126 to 128	COc1ccc(-n2nc(CCC(=O)O)cc2-c2ccc(Cl)cc2)cc1
93 to 94	CCOc1c(OC)cccc1-c1nc2ccc(C(=O)Cl)cc2c(=O)[nH]1
166	Oc1cc2c(c3c1CC=CC3)Nc1ccccc1S2
155 to 160	CC1(C)COc2cc3c(cc21)C1(CO3)C(=O)N(Cc2ccc(C(F)(F)F)o2)c2ccccc21 (configuration not stated)
152 to 155	COc1ccc(OC)c(C(=O)C=Cc2cccc(C(=O)O)c2)c1
147 to 149	CC1(CCn2nc(-c3ccncc3)oc2=O)Cn2cc([N+](=O)[O-])nc2O1 (configuration not stated)
146	O=C(O)CCc1cc2ccccc2c(-c2ccccc2)n1
213	Cc1c(C(=O)Nc2ccc(N3CCC(N4CCC(=O)CC4)CC3)c(C#N)c2)cnn1-c1ccc(Cl)cc1
196	CCOC(=O)c1c(N2CCN(C(=O)c3cccs3)CC2)c2cccnc2n(Cc2ccc(F)cc2)c1=O
320	O=C(Nc1nc2cc(O)ccc2[nH]1)NC1CC1

melting point [°C]	Structure (SMILES)
104 to 106	c1ccc2c(c1)N=C(C1CCCCC1)c1cccc3c1N2CC3
69 to 72	COc1ccc(CCc2ccc3ccc(C(=O)NCC(O)c4ccccc4)c(O)c3n2)cc1 (configuration not stated)
199 to 203	O=C1c2ccccc2O[C@@H](c2ccccc2)[C@@H]1n1ccnc1 (relative stereo)
178	COc1ccc(-c2nc(-c3ccccc3)ccc2C(=O)O)cc1OC
200	Cc1csc(NC(=O)c2nc(C)cc(C#N)c2C)n1
107 to 110	C1=C(c2cc3ccccc3s2)CCC2(C1)CCNCC2
150 to 152	CCCCCCCCCCNC(=S)Nc1ccc(NNC=O)cc1
159 to 160	Cc1ccc(N(C)S(=O)(=O)c2cccs2)c2[nH]c(-c3nccs3)cc12
154 to 155	CCCCCCS(=O)C1CC(=O)N1CC(=O)CCc1ccccc1 (configuration not stated)
101 to 104	CC(C)(C)OC(=O)N1CCCC(CO)(c2ccccc2)C1 (configuration not stated)
215 to 218	N#CC(Cc1c[nH]cn1)(c1ccccc1)c1ccc(Cl)cc1Cl (configuration not stated)
303 to 305	O=c1c2c(Cc3cccc(C(F)(F)F)c3)n[nH]c2c2cccnc2n1-c1ccccc1
124 to 125	CC(=O)Nc1cc(F)ccc1F
98 to 110	CC12CCC(=O)C=C1CCC1C2C(O)CC2(C)C1CCC2(O)C(=O)COC(=O)CC(CC(=O)O)c1ccc(O)cc1 (configuration not stated)
175 to 177	Cc1ccc(CC(N)=O)cn1
237 to 239	CC(C)C1Nc2ccc(S(=O)(=O)N3CCCCC3)cc2S(=O)(=O)N1 (configuration not stated)
113 to 114	CC(=O)ON(CCOc1ccc2c(c1)CCN(CCCc1ccc(F)cc1)C2=O)C(N)=O
127 to 137	Cc1noc(NS(=O)(=O)c2ccccc2-c2ccc(-c3ncco3)cc2CN(C)C(=O)c2ccccc2F)c1C
102 to 103	CCN1C(=O)c2cccnc2N(CC)c2ncccc21
> 250	CCON1CCC2(CC1)NC(=O)C(c1c(C)cc(C)cc1C)=C2O
177 to 178	Cc1ccc(C(=O)NCCN(C)C)cc1-n1c(C)cc(OCc2ccc(F)cc2CNC(=O)Nc2cc(C(C)(C)C)nn2-c2ccc(Cl)c(O)c2)c(Cl)c1=O
133 to 134	CN(C)c1nc2cc(Br)ccn2n1
220	O=C(c1ccccc1)N1CCC(c2c[nH]c3cc(F)ccc23)CC1

melting point [°C]	Structure (SMILES)
227 to 229	O=C(N[C@@H](Cc1ccc(Cl)cc1)C(=O)N1CCC(O)CC1)c1cc2cc(Cl)ccc2[nH]1
168 to 170	CCOC(=O)Cc1cc2ccc(O)cc2oc1=O
158	O=C(O)C1CCCn2c(=O)n(CS)c(=O)n21 (configuration not stated)
144 to 145	O=c1oc(-c2ccc(C(F)(F)F)cc2)nn1Cc1cc(Cl)ccc1O
375 to 377	Cc1cc2nc3ccc(C(N)=O)cn3c(=O)c2s1
88 to 90	CCOC(=O)COc1cccc(C(=O)Nc2ccccc2Sc2ccc(-c3nnn[nH]3)cc2)c1
65 to 68	OCCSSc1nc2ccccc2s1
125 to 126	COc1cc2ncnc(Nc3ccc(OCc4ccccn4)c(C)c3)c2cc1OCCN(C)C
96	Cc1ccc(S(=O)(=O)N2CCCC2c2ccc(F)c(Cl)c2)cc1 (racemic)
252 to 254	CCOCc1nc2c(N)nc3cc(OCc4cccc(C)c4)ccc3c2n1CC(C)(C)NS(C)(=O)=O
197 to 198	Cc1ccc(NS(=O)(=O)c2ccccc2)c(C(=O)O)c1
89 to 91	CC(C)(C)OC(=O)N1C[C@@H](CC(=O)COCC[Si](C)(C)C)[C@H]2NC(=O)[C@H]21
99 to 105	C[C@@H](N(CC(=O)O)C(=O)c1ccc(OC(F)(F)F)cc1)[C@](O)(Cn1cncn1)c1ccc(F)cc1F (relative stereo)
103 to 105	COc1ccc(OCC(O)CCN2CCN(c3ccccc3)CC2)cc1 (configuration not stated)
192 to 193	CN(C(=O)c1cccs1)c1cccc(-c2nc(=O)c3ccccc3s2)n1
55 to 60	CCCCCCCCCCCCCCCc1[nH]c2ccc(C(=S)OCC)cc2c1C
280	CNN(NC)C(=O)Nc1cccc2c1C(=O)c1c-2n[nH]c1-c1ccc(OC)s1
151 to 153	COC(=O)C1CN(C(=O)COc2ccccc2)c2ccccc2CN1S(=O)(=O)c1ccc(OC)cc1 (configuration not stated)
163 to 165	CC(C)(NC(=O)c1nnc2ccc(OCCCN3CCC(OC(c4ccccc4)c4ccccc4)CC3)nn12)C(=O)O
150 to 154	COCc1nc(C=NNC(=S)SC)c[nH]1
143 to 145	O=C(NCc1ccccn1)c1cc(OCC(F)(F)F)ccc1O
157 to 159	c1ccc2c(c1)N=C(N1CCCCC1)c1cscc1N2
258 to 266	O=C(Nc1ccc(C(=O)N2CCc3cn[nH]c3-c3sccc32)cc1)c1ccc(F)cc1Cl

Structure (SMILES)	melting point [°C]
Cc1nnc2n1-c1sc(CCc3ccc(OC(C)C)cc3)cc1C(c1ccccc1Cl)=NC2	121 to 124
CN(Cc1ccc(COOC(=O)NC(Cc2ccccc2)C(=O)O)cc1)c1ccccc1 (configuration not stated)	69.6 to 70.1
CCN1CCC2(c3cccc(O)c3)Cc3[nH]c(C(=O)Nc4ccccc4)c(C)c3CC2C1 (configuration not stated)	271 to 272
Cc1ccc(-c2cncc(CN3CC=C(c4ccccc4)CC3)c2)cc1	133 to 135
COc1cc(C2C3=C(COC3=S)N(Cc3ccccc3)c3cc4c(cc32)OCO4)cc(OC)c1OC (configuration not stated)	130

Source: a melting point compilation (Tetko et al.; mined from patent text by program, amines drawn as free bases though some values may be those of a salt)
